Here are results for one substance from patent US7767789B2, “Truncated proteins as cancer markers” (University Hopitals of Cleveland, priority 2005, dated 2010).

Assay [1] concerns the target T1, P2X7-mediated pore (HEK-293 cells expressing P2X7 or P2X7-j) (Homo sapiens, UniProt Q99572, Y155H).
T1 construct: expressed in transfected cells; host or cells: HEK-293
It counts as cell-based. The settings on record: HEK-293-P2X7-j cells compared to HEK-293-P2X7 cells.

In assay [2] the target is T2, P2X7-mediated pore (HEK-293 cells expressing P2X7 or P2X7-j) (Homo sapiens, UniProt Q99572, R270H/Y155H).
T2 construct: expressed in transfected cells; host or cells: HEK-293
T2 sequence (Q99572 whole entry Y155H/R270H): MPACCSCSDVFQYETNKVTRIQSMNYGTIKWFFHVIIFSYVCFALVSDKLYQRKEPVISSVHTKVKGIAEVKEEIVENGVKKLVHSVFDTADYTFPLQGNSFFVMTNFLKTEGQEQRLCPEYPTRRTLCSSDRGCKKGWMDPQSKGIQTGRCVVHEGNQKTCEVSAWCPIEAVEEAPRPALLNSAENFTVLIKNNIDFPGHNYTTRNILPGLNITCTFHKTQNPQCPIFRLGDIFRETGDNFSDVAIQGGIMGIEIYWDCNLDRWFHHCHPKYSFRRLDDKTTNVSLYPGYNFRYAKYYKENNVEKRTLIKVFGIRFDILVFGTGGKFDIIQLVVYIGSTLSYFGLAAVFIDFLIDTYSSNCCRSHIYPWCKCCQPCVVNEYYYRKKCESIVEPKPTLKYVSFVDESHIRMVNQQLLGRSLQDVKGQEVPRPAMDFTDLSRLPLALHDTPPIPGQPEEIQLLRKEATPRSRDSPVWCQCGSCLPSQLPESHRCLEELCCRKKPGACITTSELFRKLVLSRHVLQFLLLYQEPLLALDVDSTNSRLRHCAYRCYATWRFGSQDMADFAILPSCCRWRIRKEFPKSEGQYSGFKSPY
Type of assay: cell-based. Conditions: HEK-293-P2X7 cells; BzATP 100 micromolar.

In assay [3] the test system is P2X7-mediated pore (HEK-293 cells expressing P2X7 or P2X7-j). It counts as cell-based, human. The settings on record: P2X7 plus P2X7-j HEK-293 cells compared to P2X7 HEK-293 cells.
The subject of assay [4] is HEK-293 cells (wild-type, expressing P2X7 or P2X7-j). Description: Cell-number index of HEK-293 cells grown in culture. Type of assay: cell-based, human. The settings on record: 100 micromolar BzATP. The protocol:
Alterations in cell number for HEK-293 cells, HEK-293 cells expressing P2X7-RFL, and HEK-293 cells expressing P2X7-RTR grown in culture were studied. FIG. 15A. The three cells lines were grown in culture and viable cells were counted for a period of 3 days. The data are presented as cell number index versus days in culture. […] For example, a P2X7-RFL receptor protein may facilitate cellular apoptosis (infra).
The cell number of wild-type HEK-293 cells and of HEK-293 cells expressing P2X7-j protein increased to a greater degree than that of HEK-293 cells expressing the P2X7 protein. FIG. 15A.

Assay [5] relates to β-arrestin-2-GFP in CaSki cells. In words: Real-time confocal microscopy of β-arrestin-2-GFP, CaSki cells. The settings on record: CaSki transfected with β-arrestin-2-GFP; not shown. It counts as cell-based, human. On the procedure:
CaSki cells transfected with the β-arrestin-2-GFP, or HEK-293 cells co-transfected with the full-length human P2X7-receptor and the β-arrestin-2-GFP were plated on 35-mm glass-bottom culture dishes (MatTek Corporation, Ashland, MA). Dishes contained a centered, 1 cm well formed from a glass coverslip sealed hole in the plastic. Two hours before experiments the medium was replaced with serum-free medium supplemented with 10 mM HEPES. The distribution of the β-arrestin-2-GFP was visualized before and after treatment with the agonist by real-time confocal microscopy. Imaging of the β-arrestin-2-GFP fluorescence in the same cells was performed on a Zeiss laser-scanning confocal microscope (LSM-510) using a heated (37° C.) microscope stage. Barak et al., “A beta-arrestin/green fluorescent protein biosensor for detecting G protein-coupled receptor activation” J Biol Chem 272:27497-27500 (1997).
Images were collected sequentially before and after treatment with agonist for 0-30 min at 37° C. using single line excitation (488 nm).

For assay [6], the target named is T3, full-length human P2X7 receptor (HEK-293-hP2X7-R cells) (Homo sapiens, UniProt Q99572).
T3 construct: For transfections, the full length human P2X7 receptor; expressed in transfected cells; host or cells: HEK-293, pcDNA-6 vector
T3 sequence (Q99572 1-595): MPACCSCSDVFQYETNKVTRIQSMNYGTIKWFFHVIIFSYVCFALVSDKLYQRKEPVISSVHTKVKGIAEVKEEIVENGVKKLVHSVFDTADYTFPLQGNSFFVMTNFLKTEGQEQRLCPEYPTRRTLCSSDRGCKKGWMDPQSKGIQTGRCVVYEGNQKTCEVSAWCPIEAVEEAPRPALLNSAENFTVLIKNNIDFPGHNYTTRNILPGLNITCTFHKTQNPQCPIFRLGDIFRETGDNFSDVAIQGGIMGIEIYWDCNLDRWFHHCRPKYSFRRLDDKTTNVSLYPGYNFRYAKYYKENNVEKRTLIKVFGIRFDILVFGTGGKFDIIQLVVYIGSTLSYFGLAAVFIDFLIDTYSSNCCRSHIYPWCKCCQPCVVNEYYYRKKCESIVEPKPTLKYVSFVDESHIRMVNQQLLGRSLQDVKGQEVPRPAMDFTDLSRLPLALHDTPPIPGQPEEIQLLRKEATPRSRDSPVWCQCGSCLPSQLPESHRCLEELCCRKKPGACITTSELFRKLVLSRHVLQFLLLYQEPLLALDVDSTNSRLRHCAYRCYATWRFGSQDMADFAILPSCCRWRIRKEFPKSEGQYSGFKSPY
Description: Ethidium bromide influx in HEK-293-hP2X7-R and wild-type HEK293 cells on filters. It counts as cell-based.

The test system of assay [7] is HEK-293-P2X7 cells. In words: Apoptosis, Cell Death Detection ELISA-PLUS, HEK-293 cells. The settings on record: BzATP 50 micromolar. It counts as cell-based, human. On the procedure: Baseline and BzATP-induced apoptosis in MDCK cells and in HEK-293 cells expressing P2X7 and P2X7-j proteins were studied. FIG. 17. […] Cells were treated with BzATP (50 micromolar) to activate the P2X7 receptors. Apoptosis was quantified using Cell Death Detection ELISA-PLUS photometric enzyme-immunoassay that determines cytoplasmic histone-associated-DNA-fragments (mono and oligonucleosomes) after spontaneous or induced cell death (Roche, Cat. No. 1774425, 96 tests). […] Expression of the P2X7-j proteins either had no effect (HEK-293 cells) or may have decreased apoptosis (MDCK cells).
(An ELISA detects its analyte on a solid surface through an enzyme-linked reagent.)

The target in assay [8] is T4, P2X7 channel (HEK-293 cells expressing P2X7 or P2X7-j) (Homo sapiens, UniProt Q99572, R270H/Y155H).
T4 construct: expressed in transfected cells; host or cells: HEK-293
T4 sequence (Q99572 whole entry Y155H/R270H): as the sequence (Q99572 whole entry Y155H/R270H) above
It counts as cell-based. The settings on record: HEK-293-P2X7 cells; 100 micromolar BzATP.

Assay [9] relates to P2X7 channel (HEK-293 cells expressing P2X7 or P2X7-j). It counts as cell-based, human. The settings on record: P2X7 plus P2X7-j HEK-293 cells compared to P2X7 HEK-293 cells.
Assay [10] concerns the target T5, P2X7 channel (HEK-293 cells expressing P2X7 or P2X7-j) (Homo sapiens, UniProt Q99572, Y155H).
T5 construct: expressed in transfected cells; host or cells: HEK-293
Type of assay: cell-based. The settings on record: HEK-293-P2X7-j cells compared to HEK-293-P2X7 cells.

T1 sequence (Q99572 1-258 isoform Q99572-9 Y155H): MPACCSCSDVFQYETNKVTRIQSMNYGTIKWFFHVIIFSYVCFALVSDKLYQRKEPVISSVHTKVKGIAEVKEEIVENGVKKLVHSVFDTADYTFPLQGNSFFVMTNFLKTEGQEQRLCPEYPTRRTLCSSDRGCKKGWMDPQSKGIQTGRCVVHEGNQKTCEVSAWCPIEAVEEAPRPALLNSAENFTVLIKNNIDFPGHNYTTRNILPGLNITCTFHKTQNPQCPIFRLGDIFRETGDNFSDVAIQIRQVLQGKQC
T5 sequence (Q99572 1-258 isoform Q99572-9 Y155H): as above

As for “2′-3′-O-(4-benzoylbenzoyl)adenosine 5′-triphosphate [BzATP]”, the “ethidium bromide signaling response to BzATP” value in assay [1] is “significantly smaller”. In [2], the “ethidium bromide signaling (pore)” value is “increased ethidium bromide signaling”. In addition, in assay [3], the “ethidium bromide response to BzATP” value is recorded as “significantly smaller”. Further, the figures for the “growth of cells (cell number)” value in assay [4] (HEK-293-P2X7-j cells), in [4] (HEK-293-P2X7 cells) and in assay [4] (wild-type HEK-293 cells) were “no significant effect”, “significantly decreased further the growth” and “no significant effect”, respectively. Also, the “re-distribution of GFP fluorescence towards cell periphery” value in assay [5] is on record as “A similar effect was observed”. In addition, in assay [6], the “influx of ethidium bromide” value is given as “influx of ethidium bromide”. For the same substance, the apoptosis entry in assay [7] is “further increased this baseline apoptosis”. In addition, the “Fluo-4 signal (cytosolic calcium)” value in assay [8] is listed as “increased acutely the Fluo-4 signal”. For the same substance, the “calcium response to BzATP” value in assay [9] and in assay [10] was “significantly smaller” throughout.
